Reference: US20130212744A1, “METHOD OF REDUCING INSECT-VECTORED VIRAL INFECTIONS” (priority 2010, published 2013)
Read-outs that look alike come from different tables or passages of the source.

Legend:
Format in all cases: in vivo
[1] = system: whitefly Bemisia tabaci nymphs; assay: Soil use (drench) field trial on tomato, efficacy on whitefly nymphs; details: for Emax at 100 g/ha: 100 g ai/ha; for Emax at 150 g/ha: 150 g ai/ha
Experimental: Two soil applied studies were carried out in Elhasanya, Egypt in 2009 on tomato plants with the main goal to measure efficacy on the whitefly Bemisia tabaci. The plot size was 4.8 m^2 and 6 replicates were used in the trial. […] The spray volume was at the first application 350 l/ha. The evaluation of this study was done counting the adult whiteflies (Bemisia tabaci) as well as the nymphs and the eggs in each plot. In addition to the direct whitefly effect, visual symptoms of the virus, mainly TYLCV (tomato yellow leaf curl virus) were evaluated also.

[2] = system: whitefly Bemisia tabaci nymphs; assay: Foliar use field trial on tomato, efficacy on whitefly nymphs; details: Bemisia tabaci, foliar
Experimental: (§1) Two studies were carried out in Elhasanya, Egypt in 2009 on tomato plants of the variety Fayrouz with the main goal to measure efficacy on the whitefly Bemisia tabaci. The plot size was 4.8 m^2 and 6 replicates were used in the trial. Products were applied 3 times on young tomato plants at BBCH stages 14, 17 and 51 at spray intervals between 12 and 19 days. The spray volume was at the first application 350 l/ha and later 500 l/ha. The evaluation of this study was done counting the adult whiteflies (Bemisia tabaci) as well as the nymphs and the eggs in each plot. In addition to the direct whitefly effect, visual symptoms of the virus, mainly TYLCV (tomato yellow leaf curl virus) were evaluated also.
(§2) ASM=Acibenzolar-S-methyl. WG 50=Actigard® 50WG, a water-dispersible granule with the active ingredient ASM CYNT=Cyantraniliprole. WG 40=Cyazypyr®, a water dispersable granule with the active ingredient CYNT. Results on whitefly adults. Trial 1

[3] = system: whitefly Bemisia tabaci adults; assay: Soil use (drench) field trial on tomato, efficacy on whitefly adults; details: for Emax at 100 g/ha: 100 g ai/ha; for Emax at 150 g/ha: 150 g ai/ha
Experimental: Two soil applied studies were carried out in Elhasanya, Egypt in 2009 on tomato plants with the main goal to measure efficacy on the whitefly Bemisia tabaci. The plot size was 4.8 m^2 and 6 replicates were used in the trial. Products were applied once on young tomato plants at BBCH stage 14 as a drench. The spray volume was at the first application 350 l/ha. The evaluation of this study was done counting the adult whiteflies (Bemisia tabaci) as well as the nymphs and the eggs in each plot. In addition to the direct whitefly effect, visual symptoms of the virus, mainly TYLCV (tomato yellow leaf curl virus) were evaluated also.

[4] = system: whitefly Bemisia tabaci adults; assay: Foliar use field trial on tomato, efficacy on whitefly adults; details: Bemisia tabaci, foliar
Experimental: as §1, §2

Which results are given for `CNC(=O)c1cc(C#N)cc(C)c1NC(=O)c1cc(Br)nn1-c1ncccc1Cl` [CYNT, 3-bromo-1-(3-chloro-2-pyridyl)-4′-cyano-2′-methyl-6′-(methylcarbamoyl)pyrazole-5-carboxanilide]?
Emax at 100 g/ha ([1]; 25DAA1, Trial 2): 60%; Emax at 100 g/ha ([1]; 30DAA1, Trial 2): 34%; Emax at 100 g/ha ([1]; 35DAA1, Trial 2): 63%; Emax at 100 g/ha ([1]; 40DAA2, Trial 2): 52%; Emax at 150 g/ha ([1]; 25DAA1, Trial 2): 78%; Emax at 150 g/ha ([1]; 30DAA1, Trial 2): 79%; Emax at 150 g/ha ([1]; 35DAA1, Trial 2): 77%; Emax at 150 g/ha ([1]; 40DAA2, Trial 2): 61%; Emax at 100 g/ha ([1]; 240 h, 10DAA, Trial 1): 67%; Emax at 150 g/ha ([1]; 240 h, 10DAA, Trial 1): 69%; Emax at 100 g/ha ([1]; 360 h, 15DAA, Trial 1): 65%; Emax at 150 g/ha ([1]; 360 h, 15DAA, Trial 1): 84%; Emax at 100 g/ha ([1]; 480 h, 20DAA, Trial 1): 59%; Emax at 150 g/ha ([1]; 480 h, 20DAA, Trial 1): 84%; Emax at 100 g/ha ([1]; 600 h, 25DAA, Trial 1): 39%; Emax at 150 g/ha ([1]; 600 h, 25DAA, Trial 1): 77%; Emax at 100 g/ha ([1]; 720 h, 30DAA, Trial 1): 28%; Emax at 150 g/ha ([1]; 720 h, 30DAA, Trial 1): 74%; Emax at 100 g/ha ([1]; 840 h, 35DAA, Trial 1): 24%; Emax at 150 g/ha ([1]; 840 h, 35DAA, Trial 1): 70%; Emax at 100 g/ha ([1]; 960 h, 40DAA, Trial 1): 13%; Emax at 150 g/ha ([1]; 960 h, 40DAA, Trial 1): 64%; Emax ([2]; 75 g ai/hl, 5DAA2, Trial 1, read-out: % Efficacy on Nymphs): 27%; Emax ([2]; 75 g ai/hl, 5DAA2, Trial 2, read-out: % Efficacy on Nymphs): 27%; Emax ([2]; 75 g ai/hl, 5DAA3, Trial 1, read-out: % Efficacy on Nymphs): 72%; Emax ([2]; 75 g ai/hl, 5DAA3, Trial 2, read-out: % Efficacy on Nymphs): 72%; Emax ([2]; 75 g ai/hl, 10DAA2, Trial 1, read-out: % Efficacy on Nymphs): 48%; Emax ([2]; 75 g ai/hl, 10DAA2, Trial 2, read-out: % Efficacy on Nymphs): 48%; Emax ([2]; 75 g ai/hl, 10DAA3, Trial 1, read-out: % Efficacy on Nymphs): 65%; Emax ([2]; 75 g ai/hl, 10DAA3, Trial 2, read-out: % Efficacy on Nymphs): 65%; Emax ([2]; 75 g ai/hl, 15DAA3, Trial 1, read-out: % Efficacy on Nymphs): 60%; Emax ([2]; 75 g ai/hl, 15DAA3, Trial 2, read-out: % Efficacy on Nymphs): 60%; Emax ([2]; 75 g ai/hl, 20DAA3, Trial 1, read-out: % Efficacy on Nymphs): 48%; Emax ([2]; 75 g ai/hl, 20DAA3, Trial 2, read-out: % Efficacy on Nymphs): 48%; Emax ([2]; 75 g ai/hl, Avg, Trial 1, read-out: % Efficacy on Nymphs Avg % C): 53%; Emax ([2]; 100 g ai/hl, 5DAA2, Trial 1, read-out: % Efficacy on Nymphs): 73%; Emax ([2]; 100 g ai/hl, 5DAA2, Trial 2, read-out: % Efficacy on Nymphs): 73%; Emax ([2]; 100 g ai/hl, 5DAA3, Trial 1, read-out: % Efficacy on Nymphs): 84%; Emax ([2]; 100 g ai/hl, 5DAA3, Trial 2, read-out: % Efficacy on Nymphs): 84%; Emax ([2]; 100 g ai/hl, 10DAA2, Trial 1, read-out: % Efficacy on Nymphs): 73%; Emax ([2]; 100 g ai/hl, 10DAA2, Trial 2, read-out: % Efficacy on Nymphs): 73%; Emax ([2]; 100 g ai/hl, 10DAA3, Trial 1, read-out: % Efficacy on Nymphs): 78%; Emax ([2]; 100 g ai/hl, 10DAA3, Trial 2, read-out: % Efficacy on Nymphs): 78%; Emax ([2]; 100 g ai/hl, 15DAA3, Trial 1, read-out: % Efficacy on Nymphs): 68%; Emax ([2]; 100 g ai/hl, 15DAA3, Trial 2, read-out: % Efficacy on Nymphs): 68%; Emax ([2]; 100 g ai/hl, 20DAA3, Trial 1, read-out: % Efficacy on Nymphs): 56%; Emax ([2]; 100 g ai/hl, 20DAA3, Trial 2, read-out: % Efficacy on Nymphs): 56%; Emax ([2]; 100 g ai/hl, Avg, Trial 1, read-out: % Efficacy on Nymphs Avg % C): 72%; Emax at 100 g/ha ([3]; 120 h, 5DAA, Trial 1): 79%; Emax at 100 g/ha ([3]; 120 h, 5DAA, Trial 2): 70%; Emax at 150 g/ha ([3]; 120 h, 5DAA, Trial 1): 83%; Emax at 150 g/ha ([3]; 120 h, 5DAA, Trial 2): 76%; Emax at 100 g/ha ([3]; 240 h, 10DAA, Trial 1): 75%; Emax at 100 g/ha ([3]; 240 h, 10DAA, Trial 2): 71%; Emax at 150 g/ha ([3]; 240 h, 10DAA, Trial 1): 75%; Emax at 150 g/ha ([3]; 240 h, 10DAA, Trial 2): 80%; Emax at 100 g/ha ([3]; 360 h, 15DAA, Trial 1): 78%; Emax at 100 g/ha ([3]; 360 h, 15DAA, Trial 2): 76%; Emax at 150 g/ha ([3]; 360 h, 15DAA, Trial 1): 79%; Emax at 150 g/ha ([3]; 360 h, 15DAA, Trial 2): 83%; Emax at 100 g/ha ([3]; 480 h, 20DAA, Trial 1): 72%; Emax at 100 g/ha ([3]; 480 h, 20DAA, Trial 2): 74%; Emax at 150 g/ha ([3]; 480 h, 20DAA, Trial 1): 74%; Emax at 150 g/ha ([3]; 480 h, 20DAA, Trial 2): 82%; Emax at 100 g/ha ([3]; 600 h, 25DAA, Trial 1): 66%; Emax at 100 g/ha ([3]; 600 h, 25DAA, Trial 2): 72%; Emax at 150 g/ha ([3]; 600 h, 25DAA, Trial 1): 69%; Emax at 150 g/ha ([3]; 600 h, 25DAA, Trial 2): 80%; Emax at 100 g/ha ([3]; 720 h, 30DAA, Trial 1): 61%; Emax at 100 g/ha ([3]; 720 h, 30DAA, Trial 2): 65%; Emax at 150 g/ha ([3]; 720 h, 30DAA, Trial 1): 67%; Emax at 150 g/ha ([3]; 720 h, 30DAA, Trial 2): 71%; Emax at 100 g/ha ([3]; 840 h, 35DAA, Trial 1): 53%; Emax at 100 g/ha ([3]; 840 h, 35DAA, Trial 2): 57%; Emax at 150 g/ha ([3]; 840 h, 35DAA, Trial 1): 59%; Emax at 150 g/ha ([3]; 840 h, 35DAA, Trial 2): 62%; Emax at 100 g/ha ([3]; 960 h, 40DAA, Trial 1): 39%; Emax at 100 g/ha ([3]; 960 h, 40DAA, Trial 2): 43%; Emax at 150 g/ha ([3]; 960 h, 40DAA, Trial 1): 45%; Emax at 150 g/ha ([3]; 960 h, 40DAA, Trial 2): 45%; Emax ([4]; 75 g ai/hl, 5DAA1, Trial 1, read-out: % Efficacy on Adults): 82%; Emax ([4]; 75 g ai/hl, 5DAA1, Trial 2, read-out: % Efficacy on Adults): 82%; Emax ([4]; 75 g ai/hl, 5DAA2, Trial 1, read-out: % Efficacy on Adults): 69%; Emax ([4]; 75 g ai/hl, 5DAA2, Trial 2, read-out: % Efficacy on Adults): 69%; Emax ([4]; 75 g ai/hl, 5DAA3, Trial 1, read-out: % Efficacy on Adults): 83%; Emax ([4]; 75 g ai/hl, 5DAA3, Trial 2, read-out: % Efficacy on Adults): 83%; Emax ([4]; 75 g ai/hl, 10DAA1, Trial 1, read-out: % Efficacy on Adults): 49%; Emax ([4]; 75 g ai/hl, 10DAA1, Trial 2, read-out: % Efficacy on Adults): 49%; Emax ([4]; 75 g ai/hl, 10DAA2, Trial 1, read-out: % Efficacy on Adults): 67%; Emax ([4]; 75 g ai/hl, 10DAA2, Trial 2, read-out: % Efficacy on Adults): 67%; Emax ([4]; 75 g ai/hl, 10DAA3, Trial 1, read-out: % Efficacy on Adults): 79%; Emax ([4]; 75 g ai/hl, 10DAA3, Trial 2, read-out: % Efficacy on Adults): 79%; Emax ([4]; 75 g ai/hl, 15DAA3, Trial 1, read-out: % Efficacy on Adults): 71%; Emax ([4]; 75 g ai/hl, 15DAA3, Trial 2, read-out: % Efficacy on Adults): 71%; Emax ([4]; 75 g ai/hl, 20DAA3, Trial 1, read-out: % Efficacy on Adults): 62%; Emax ([4]; 75 g ai/hl, 20DAA3, Trial 2, read-out: % Efficacy on Adults): 62%; Emax ([4]; 75 g ai/hl, Avg, Trial 1, read-out: % Efficacy on Adults Avg % C): 70%; Emax ([4]; 100 g ai/hl, 5DAA1, Trial 1, read-out: % Efficacy on Adults): 89%; Emax ([4]; 100 g ai/hl, 5DAA1, Trial 2, read-out: % Efficacy on Adults): 89%; Emax ([4]; 100 g ai/hl, 5DAA2, Trial 1, read-out: % Efficacy on Adults): 89%; Emax ([4]; 100 g ai/hl, 5DAA2, Trial 2, read-out: % Efficacy on Adults): 89%; Emax ([4]; 100 g ai/hl, 5DAA3, Trial 1, read-out: % Efficacy on Adults): 90%; Emax ([4]; 100 g ai/hl, 5DAA3, Trial 2, read-out: % Efficacy on Adults): 90%; Emax ([4]; 100 g ai/hl, 10DAA1, Trial 1, read-out: % Efficacy on Adults): 74%; Emax ([4]; 100 g ai/hl, 10DAA1, Trial 2, read-out: % Efficacy on Adults): 74%; Emax ([4]; 100 g ai/hl, 10DAA2, Trial 1, read-out: % Efficacy on Adults): 86%; Emax ([4]; 100 g ai/hl, 10DAA2, Trial 2, read-out: % Efficacy on Adults): 86%; Emax ([4]; 100 g ai/hl, 10DAA3, Trial 1, read-out: % Efficacy on Adults): 86%; Emax ([4]; 100 g ai/hl, 10DAA3, Trial 2, read-out: % Efficacy on Adults): 86%; Emax ([4]; 100 g ai/hl, 15DAA3, Trial 1, read-out: % Efficacy on Adults): 80%; Emax ([4]; 100 g ai/hl, 15DAA3, Trial 2, read-out: % Efficacy on Adults): 80%; Emax ([4]; 100 g ai/hl, 20DAA3, Trial 1, read-out: % Efficacy on Adults): 68%; Emax ([4]; 100 g ai/hl, 20DAA3, Trial 2, read-out: % Efficacy on Adults): 68%; Emax ([4]; 100 g ai/hl, Avg, Trial 1, read-out: % Efficacy on Adults Avg % C): 83%
